Test results published in ChEMBL document CHEMBL3217528, “Bicyclic imidazole-4-one derivatives: a new class of antagonists for the orphan G protein-coupled receptors GPR18 and GPR55” (Medchemcomm, 2014).
pIC50, pKi: −log10 of the molar value. Active and inactive are the calls of the source. The calls are words filed in the database; no cut-off is given here.

Biological target: T1, Cannabinoid receptor 1 (Homo sapiens, UniProt P21554)
Assay: Intrinsic activity at human recombinant CB1 receptor expressed in HEK293 cell membranes assessed as stimulation of [35S]GTPgammaS binding at 10 uM by liquid scintillation counting method relative to CP55,940
Format: functional

T1 sequence (P21554 whole entry): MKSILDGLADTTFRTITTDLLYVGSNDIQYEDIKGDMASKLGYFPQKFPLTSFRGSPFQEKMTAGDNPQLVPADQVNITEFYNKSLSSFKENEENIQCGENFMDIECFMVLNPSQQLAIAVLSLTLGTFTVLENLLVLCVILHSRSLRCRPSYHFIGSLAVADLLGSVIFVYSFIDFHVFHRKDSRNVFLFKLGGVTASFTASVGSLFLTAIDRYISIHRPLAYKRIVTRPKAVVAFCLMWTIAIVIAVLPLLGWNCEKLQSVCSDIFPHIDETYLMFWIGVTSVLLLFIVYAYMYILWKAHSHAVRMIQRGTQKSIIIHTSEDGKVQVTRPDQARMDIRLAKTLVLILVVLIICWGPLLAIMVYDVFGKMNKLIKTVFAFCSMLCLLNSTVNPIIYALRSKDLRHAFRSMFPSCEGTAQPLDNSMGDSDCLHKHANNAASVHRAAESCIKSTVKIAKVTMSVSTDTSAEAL

SMILES	Intrinsic activity [%]
O=C1/C(=C/c2cccc(OCc3ccccc3)c2)N=C2SCCCCN12	-35
O=C1/C(=C/c2cccc(OCc3ccc(Cl)cc3Cl)c2)N=C2SCCCCN12	-44
O=C1/C(=C/c2cccc(OCc3ccccc3)c2)N=C2SCCCN12	-33
O=C1/C(=C/c2cccc(Oc3ccccc3)c2)N=C2SCCCCN12	-37
O=C1/C(=C/c2cccc(Oc3ccccc3)c2)N=C2SCCCN12	-49
O=C1/C(=C/c2cccc(OCc3ccc(F)cc3)c2)N=C2SCCCCN12	-16

More lines, now with the values ahead:

Intrinsic activity [%]	SMILES
-16	O=C1N2CCCCSC2=NC1(c1ccccc1)c1ccccc1
-48	O=C1N=C2SCCCCN2C1(c1ccccc1)c1ccccc1
-31	O=C1N2CCCSC2=NC1(c1ccccc1)c1ccccc1

Biological target: Cannabinoid receptor 1 (Rattus norvegicus) (UniProt P20272)
Sequence (P20272 whole entry): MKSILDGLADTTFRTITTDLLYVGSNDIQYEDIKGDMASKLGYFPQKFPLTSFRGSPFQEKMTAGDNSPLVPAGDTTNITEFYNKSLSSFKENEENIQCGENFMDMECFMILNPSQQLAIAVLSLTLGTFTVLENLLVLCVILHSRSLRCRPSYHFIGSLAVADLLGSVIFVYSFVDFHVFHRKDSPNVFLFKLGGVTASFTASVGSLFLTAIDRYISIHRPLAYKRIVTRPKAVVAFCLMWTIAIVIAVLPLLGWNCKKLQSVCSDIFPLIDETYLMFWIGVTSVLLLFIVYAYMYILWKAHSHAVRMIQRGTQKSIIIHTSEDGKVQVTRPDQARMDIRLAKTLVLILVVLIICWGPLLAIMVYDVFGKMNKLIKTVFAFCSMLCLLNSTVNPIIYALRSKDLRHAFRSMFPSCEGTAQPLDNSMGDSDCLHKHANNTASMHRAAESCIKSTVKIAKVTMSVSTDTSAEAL
Assay: Intrinsic activity at CB1 receptor in rat brain cortical membranes assessed as stimulation of [35S]GTPgammaS binding at 10 uM by liquid scintillation counting method relative to CP55,940
Format: functional, cell membranes

SMILES	Intrinsic activity [%]
O=C1/C(=C/c2cccc(OCc3ccccc3)c2)N=C2SCCCCN12	-26
O=C1/C(=C/c2cccc(OCc3ccc(Cl)cc3Cl)c2)N=C2SCCCCN12	-21
O=C1/C(=C/c2cccc(OCc3ccccc3)c2)N=C2SCCCN12	-9
O=C1/C(=C/c2cccc(Oc3ccccc3)c2)N=C2SCCCCN12	-21
O=C1/C(=C/c2cccc(Oc3ccccc3)c2)N=C2SCCCN12	-15
O=C1/C(=C/c2cccc(OCc3ccc(F)cc3)c2)N=C2SCCCCN12	-16

Further lines, results first:

Intrinsic activity [%]	SMILES
-15	O=C1N2CCCCSC2=NC1(c1ccccc1)c1ccccc1
-19	O=C1N=C2SCCCCN2C1(c1ccccc1)c1ccccc1
-21	O=C1N2CCCSC2=NC1(c1ccccc1)c1ccccc1

Biological target: T2, G-protein coupled receptor 55 (Homo sapiens, UniProt Q9Y2T6)
T2 sequence (Q9Y2T6 whole entry, the tested form may be a part): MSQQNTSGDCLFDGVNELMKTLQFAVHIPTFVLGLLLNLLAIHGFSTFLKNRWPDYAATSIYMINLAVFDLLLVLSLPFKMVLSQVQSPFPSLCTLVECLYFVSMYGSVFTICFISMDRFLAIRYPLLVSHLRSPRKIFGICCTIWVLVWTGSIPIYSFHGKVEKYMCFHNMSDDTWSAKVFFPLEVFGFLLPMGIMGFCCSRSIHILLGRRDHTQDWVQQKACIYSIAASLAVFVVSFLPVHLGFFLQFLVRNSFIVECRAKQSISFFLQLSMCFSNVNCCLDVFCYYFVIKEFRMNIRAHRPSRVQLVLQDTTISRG
Assay: Agonist activity at human GPR55 expressed in CHO cells assessed as induction of LPI-induced beta-arrestin recruitment by beta-galactosidase enzyme fragment complementation method relative to LPI
Format: cell-based
Parameters: concentration or dose not given beside the values

SMILES	Activity [%]
O=C1/C(=C/c2cccc(OCc3ccccc3)c2)N=C2SCCCCN12	4
O=C1/C(=C/c2cccc(OCc3ccc(Cl)cc3Cl)c2)N=C2SCCCCN12	16
O=C1/C(=C/c2cccc(OCc3ccccc3)c2)N=C2SCCCN12	37
O=C1/C(=C/c2cccc(Oc3ccccc3)c2)N=C2SCCCCN12	5
O=C1/C(=C/c2cccc(Oc3ccccc3)c2)N=C2SCCCN12	13
O=C1/C(=C/c2cccc(OCc3ccc(F)cc3)c2)N=C2SCCCCN12	19

Second part, the compound after the results:

Activity [%]	SMILES
54	O=C1N2CCCCSC2=NC1(c1ccccc1)c1ccccc1
10	O=C1N=C2SCCCCN2C1(c1ccccc1)c1ccccc1
19	O=C1N2CCCSC2=NC1(c1ccccc1)c1ccccc1

Biological target: T3, N-arachidonyl glycine receptor (Homo sapiens) (UniProt Q14330)
T3 sequence (whole entry): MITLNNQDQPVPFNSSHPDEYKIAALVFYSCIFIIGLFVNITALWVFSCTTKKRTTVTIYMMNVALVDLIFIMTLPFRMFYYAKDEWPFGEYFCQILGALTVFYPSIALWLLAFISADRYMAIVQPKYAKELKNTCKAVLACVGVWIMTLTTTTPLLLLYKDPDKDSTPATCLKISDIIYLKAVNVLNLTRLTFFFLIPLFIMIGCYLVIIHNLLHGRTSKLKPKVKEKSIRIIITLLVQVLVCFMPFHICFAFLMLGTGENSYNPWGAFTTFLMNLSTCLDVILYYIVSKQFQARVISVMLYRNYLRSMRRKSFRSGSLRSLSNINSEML
Assay: Agonist activity at human GPR18 expressed in CHO cells assessed as induction of beta-arrestin recruitment by beta-galactosidase enzyme fragment complementation method relative to delta9-THC
Format: cell-based
Parameters: concentration or dose not given beside the values

SMILES	Activity [%]
O=C1/C(=C/c2cccc(OCc3ccccc3)c2)N=C2SCCCCN12	7
O=C1/C(=C/c2cccc(OCc3ccc(Cl)cc3Cl)c2)N=C2SCCCCN12	0
O=C1/C(=C/c2cccc(OCc3ccccc3)c2)N=C2SCCCN12	0
O=C1/C(=C/c2cccc(Oc3ccccc3)c2)N=C2SCCCCN12	1
O=C1/C(=C/c2cccc(Oc3ccccc3)c2)N=C2SCCCN12	5
O=C1/C(=C/c2cccc(OCc3ccc(F)cc3)c2)N=C2SCCCCN12	0

Results, then the compound that gave them:

Activity [%]	SMILES
15	O=C1N2CCCCSC2=NC1(c1ccccc1)c1ccccc1
11	O=C1N=C2SCCCCN2C1(c1ccccc1)c1ccccc1
14	O=C1N2CCCSC2=NC1(c1ccccc1)c1ccccc1

Biological target: not listed separately
Assay: Displacement of [3H]diazepam from GABAA receptor in rat brain cortical membranes
Format: cell membranes

pKi	SMILES
< 5.00	O=C1/C(=C/c2cccc(OCc3ccc(Cl)cc3Cl)c2)N=C2SCCCCN12

Biological target: Cannabinoid receptor 1 (Rattus norvegicus, UniProt P20272)
Sequence (P20272 whole entry): as the sequence (P20272 whole entry) above
Assay: Displacement of [3H]CP55,940 from CB1 receptor in rat brain cortical membranes
Format: cell membranes

SMILES	pKi
O=C1/C(=C/c2cccc(OCc3ccccc3)c2)N=C2SCCCCN12	5.70
O=C1/C(=C/c2cccc(OCc3ccc(Cl)cc3Cl)c2)N=C2SCCCCN12	5.60
O=C1/C(=C/c2cccc(OCc3ccccc3)c2)N=C2SCCCN12	5.37
O=C1/C(=C/c2cccc(Oc3ccccc3)c2)N=C2SCCCCN12	5.44
O=C1/C(=C/c2cccc(Oc3ccccc3)c2)N=C2SCCCN12	5.18
O=C1/C(=C/c2cccc(OCc3ccc(F)cc3)c2)N=C2SCCCCN12	6.14

The remaining lines, values ahead:

pKi	SMILES
5.40	O=C1N2CCCCSC2=NC1(c1ccccc1)c1ccccc1
4.67	O=C1N=C2SCCCCN2C1(c1ccccc1)c1ccccc1
5.11	O=C1N2CCCSC2=NC1(c1ccccc1)c1ccccc1

Biological target: T4, Cannabinoid receptor 2 (Homo sapiens, UniProt P34972)
T4 sequence (P34972 whole entry): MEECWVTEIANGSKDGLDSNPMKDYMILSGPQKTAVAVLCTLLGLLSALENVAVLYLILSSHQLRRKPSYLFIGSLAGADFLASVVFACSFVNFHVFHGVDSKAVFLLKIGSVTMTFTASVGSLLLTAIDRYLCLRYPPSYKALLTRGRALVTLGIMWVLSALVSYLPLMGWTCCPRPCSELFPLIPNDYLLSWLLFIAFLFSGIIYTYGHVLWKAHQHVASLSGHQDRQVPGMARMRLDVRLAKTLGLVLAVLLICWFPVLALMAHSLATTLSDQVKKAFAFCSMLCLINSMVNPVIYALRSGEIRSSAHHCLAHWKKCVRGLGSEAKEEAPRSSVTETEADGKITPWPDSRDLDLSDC
Assay: Agonist activity at human recombinant CB2 receptor expressed in CHO-K1 cell membranes assessed effect on forskolin-induced cAMP accumulation at 10 uM
Format: functional, cell-based

Activity	SMILES
inactive	O=C1/C(=C/c2cccc(OCc3ccccc3)c2)N=C2SCCCCN12
inactive	O=C1/C(=C/c2cccc(OCc3ccc(Cl)cc3Cl)c2)N=C2SCCCCN12
inactive	O=C1/C(=C/c2cccc(OCc3ccccc3)c2)N=C2SCCCN12
inactive	O=C1/C(=C/c2cccc(OCc3ccc(F)cc3)c2)N=C2SCCCCN12

Biological target: T1, Cannabinoid receptor 1
Assay: Agonist activity at human recombinant CB1 receptor expressed in CHO-K1 cell membranes assessed effect on forskolin-induced cAMP accumulation at 10 uM
Format: functional, cell-based

Activity	SMILES
inactive	O=C1N2CCCCSC2=NC1(c1ccccc1)c1ccccc1
inactive	O=C1/C(=C/c2cccc(OCc3ccc(F)cc3)c2)N=C2SCCCCN12

Biological target: T4, Cannabinoid receptor 2
Assay: Displacement of [3H]CP55,940 from human recombinant CB2 receptor expressed in HEK293 cells at 10 uM
Format: cell-based

SMILES	inhibition [%]
O=C1/C(=C/c2cccc(Oc3ccccc3)c2)N=C2SCCCCN12	21
O=C1/C(=C/c2cccc(Oc3ccccc3)c2)N=C2SCCCN12	9

The remaining lines, values ahead:

inhibition [%]	SMILES
14	O=C1N2CCCCSC2=NC1(c1ccccc1)c1ccccc1
10	O=C1N=C2SCCCCN2C1(c1ccccc1)c1ccccc1
5	O=C1N2CCCSC2=NC1(c1ccccc1)c1ccccc1

Biological target: T4, Cannabinoid receptor 2
Assay: Displacement of [3H]CP55,940 from human recombinant CB2 receptor expressed in HEK293 cells
Format: cell-based

SMILES	pKi
O=C1/C(=C/c2cccc(OCc3ccccc3)c2)N=C2SCCCCN12	5.74
O=C1/C(=C/c2cccc(OCc3ccc(Cl)cc3Cl)c2)N=C2SCCCCN12	5.78
O=C1/C(=C/c2cccc(OCc3ccccc3)c2)N=C2SCCCN12	5.95
O=C1/C(=C/c2cccc(Oc3ccccc3)c2)N=C2SCCCCN12	< 5.00
O=C1/C(=C/c2cccc(Oc3ccccc3)c2)N=C2SCCCN12	< 5.00
O=C1/C(=C/c2cccc(OCc3ccc(F)cc3)c2)N=C2SCCCCN12	5.81

More lines, now with the values ahead:

pKi	SMILES
< 5.00	O=C1N2CCCCSC2=NC1(c1ccccc1)c1ccccc1
< 5.00	O=C1N=C2SCCCCN2C1(c1ccccc1)c1ccccc1
< 5.00	O=C1N2CCCSC2=NC1(c1ccccc1)c1ccccc1

Biological target: T1, Cannabinoid receptor 1
Assay: Displacement of [3H]CP55,940 from human recombinant CB1 receptor expressed in CHO-K1 cells at 10 uM
Format: cell-based

SMILES	inhibition [%]
O=C1/C(=C/c2cccc(OCc3ccccc3)c2)N=C2SCCCN12	25
O=C1/C(=C/c2cccc(Oc3ccccc3)c2)N=C2SCCCN12	29

Results, then the compound that gave them:

inhibition [%]	SMILES
34	O=C1N=C2SCCCCN2C1(c1ccccc1)c1ccccc1
25	O=C1N2CCCSC2=NC1(c1ccccc1)c1ccccc1

Biological target: T1, Cannabinoid receptor 1
Assay: Displacement of [3H]CP55,940 from human recombinant CB1 receptor expressed in CHO-K1 cells
Format: cell-based

SMILES	pKi
O=C1/C(=C/c2cccc(OCc3ccccc3)c2)N=C2SCCCCN12	5.67
O=C1/C(=C/c2cccc(OCc3ccc(Cl)cc3Cl)c2)N=C2SCCCCN12	5.50
O=C1/C(=C/c2cccc(OCc3ccccc3)c2)N=C2SCCCN12	< 5.00
O=C1/C(=C/c2cccc(Oc3ccccc3)c2)N=C2SCCCCN12	5.80
O=C1/C(=C/c2cccc(Oc3ccccc3)c2)N=C2SCCCN12	< 5.00
O=C1/C(=C/c2cccc(OCc3ccc(F)cc3)c2)N=C2SCCCCN12	6.07

The next lines start with the values.

pKi	SMILES
5.87	O=C1N2CCCCSC2=NC1(c1ccccc1)c1ccccc1
< 5.00	O=C1N=C2SCCCCN2C1(c1ccccc1)c1ccccc1
< 5.00	O=C1N2CCCSC2=NC1(c1ccccc1)c1ccccc1

Biological target: T2, G-protein coupled receptor 55
Assay: Antagonist activity against human GPR55 expressed in CHO cells assessed as reduction in LPI-induced beta-arrestin recruitment at 10 uM by beta-galactosidase enzyme fragment complementation method
Format: cell-based

SMILES	inhibition [%]
O=C1/C(=C/c2cccc(OCc3ccccc3)c2)N=C2SCCCCN12	21
O=C1/C(=C/c2cccc(OCc3ccc(Cl)cc3Cl)c2)N=C2SCCCCN12	33
O=C1/C(=C/c2cccc(OCc3ccccc3)c2)N=C2SCCCN12	0
O=C1/C(=C/c2cccc(Oc3ccccc3)c2)N=C2SCCCCN12	33
O=C1/C(=C/c2cccc(Oc3ccccc3)c2)N=C2SCCCN12	33
O=C1/C(=C/c2cccc(OCc3ccc(F)cc3)c2)N=C2SCCCCN12	12

Second part, the compound after the results:

inhibition [%]	SMILES
6	O=C1N2CCCCSC2=NC1(c1ccccc1)c1ccccc1
32	O=C1N=C2SCCCCN2C1(c1ccccc1)c1ccccc1
23	O=C1N2CCCSC2=NC1(c1ccccc1)c1ccccc1

Biological target: T2, G-protein coupled receptor 55
Assay: Antagonist activity against human GPR55 expressed in CHO cells assessed as reduction in LPI-induced beta-arrestin recruitment by beta-galactosidase enzyme fragment complementation method
Format: cell-based

SMILES	pIC50
O=C1/C(=C/c2cccc(OCc3ccccc3)c2)N=C2SCCCCN12	< 5.00
O=C1/C(=C/c2cccc(OCc3ccc(Cl)cc3Cl)c2)N=C2SCCCCN12	< 5.00
O=C1/C(=C/c2cccc(OCc3ccccc3)c2)N=C2SCCCN12	< 5.00
O=C1/C(=C/c2cccc(Oc3ccccc3)c2)N=C2SCCCCN12	< 5.00
O=C1/C(=C/c2cccc(Oc3ccccc3)c2)N=C2SCCCN12	< 5.00
O=C1/C(=C/c2cccc(OCc3ccc(F)cc3)c2)N=C2SCCCCN12	< 5.00

Results, then the compound that gave them:

pIC50	SMILES
< 5.00	O=C1N2CCCCSC2=NC1(c1ccccc1)c1ccccc1
< 5.00	O=C1N=C2SCCCCN2C1(c1ccccc1)c1ccccc1
< 5.00	O=C1N2CCCSC2=NC1(c1ccccc1)c1ccccc1

Biological target: T3, N-arachidonyl glycine receptor (Homo sapiens)
Assay: Antagonist activity against human GPR18 expressed in CHO cells assessed as reduction in delta9-THC-induced beta-arrestin recruitment at 10 uM by beta-galactosidase enzyme fragment complementation method
Format: cell-based

SMILES	inhibition [%]
O=C1/C(=C/c2cccc(OCc3ccccc3)c2)N=C2SCCCCN12	49
O=C1/C(=C/c2cccc(Oc3ccccc3)c2)N=C2SCCCN12	54
O=C1/C(=C/c2cccc(OCc3ccc(F)cc3)c2)N=C2SCCCCN12	5

More lines, now with the values ahead:

inhibition [%]	SMILES
0	O=C1N2CCCCSC2=NC1(c1ccccc1)c1ccccc1
0	O=C1N=C2SCCCCN2C1(c1ccccc1)c1ccccc1
0	O=C1N2CCCSC2=NC1(c1ccccc1)c1ccccc1

Biological target: T5, N-arachidonyl glycine receptor (Homo sapiens, UniProt Q14330)
T5 sequence (Q14330 whole entry): T3 sequence (whole entry)
Assay: Antagonist activity against human GPR18 expressed in CHO cells assessed as reduction in delta9-THC-induced beta-arrestin recruitment by beta-galactosidase enzyme fragment complementation method
Format: cell-based

SMILES	pIC50
O=C1/C(=C/c2cccc(OCc3ccccc3)c2)N=C2SCCCCN12	5.00
O=C1/C(=C/c2cccc(OCc3ccc(Cl)cc3Cl)c2)N=C2SCCCCN12	5.34
O=C1/C(=C/c2cccc(OCc3ccccc3)c2)N=C2SCCCN12	5.14
O=C1/C(=C/c2cccc(Oc3ccccc3)c2)N=C2SCCCCN12	4.85
O=C1/C(=C/c2cccc(Oc3ccccc3)c2)N=C2SCCCN12	5.00
O=C1/C(=C/c2cccc(OCc3ccc(F)cc3)c2)N=C2SCCCCN12	< 5.00

The next lines start with the values.

pIC50	SMILES
< 5.00	O=C1N2CCCCSC2=NC1(c1ccccc1)c1ccccc1
< 5.00	O=C1N=C2SCCCCN2C1(c1ccccc1)c1ccccc1
< 5.00	O=C1N2CCCSC2=NC1(c1ccccc1)c1ccccc1
